Assay results reported in US9872870B2, “Multifunctional micellar nanoparticle-based drug and targeting agent system” (University of Notre Dame du Lac, priority 2011, dated 2018).

What was measured:
NCI-H929 cells [1] = assay: DNA double strand breaks and apoptosis (western blot, immunocytochemistry, Annexin V); format: cell-based, human; conditions: 250 nM Dox equivalents, 0-48 h
Protocol: It is well established that Dox induces DNA double strand breaks (DSBs) and apoptosis of cancer cells. An early specific cellular response to DSBs in mammalian cells is the phosphorylation of the histone protein H2AX (γ-H2AX), with respective foci formation. Therefore, we examined whether free Dox and NPDox/VLA-4-pep triggered similar signaling cascades of DNA damage and apoptosis in MM cells. […] Phosphorylation of DNA damage response protein H2AX at Ser139 was assayed by western blotting (FIG. 10a). Respective H2AX foci formation was assayed by immunocytochemistry (FIG. 10b). Apoptosis was assessed by flow cytometry following Annexin V-FITC staining (FIG. 10c), and by western blotting for PARP cleavage and caspase-8 and caspase-9 activation (FIG. 10d).
For immunocytochemistry analysis, cytospins of drug-treated cells were prepared on glass slides and fixed with 4% paraformaldehyde. Slides were blocked with 5% goat serum, incubated with y-H2AX antibody (Cell Signaling) overnight at 4° C., and then with AlexaFluor-488-labelled Fab2 (Molecular Probes). Coverslips were then mounted on the glass slides with VectaShield antifade/DAR (Vector Labs) and analyzed by Nikon Eclipse TS100 fluorescence microscope at 60×/0.5-1.25 oil, with a Nikon Infinity camera. For flow cytometric analysis, data represent means (±SD) of triplicate experiments. For western blotting, representative images are shown, and all antibodies were purchased from Cell Signaling.

[2] = Systemic toxicity in tumor bearing mice (body weight, lethality, blood count, organ weights, histopathology); format: in vivo, CB.17 SCID mice
Protocol: (§1) To validate the therapeutic efficacy of multifunctional nanoparticles, CB.17 SCID mice (Harlan Laboratories) were irradiated with 150 rad, and were inoculated subcutaneously with 5×10^6 NCI-H929 cells. […] When the tumors were palpable, each mouse was injected with the drug, intravenously, on days 1, 3, and 5. […] Animals were monitored for body weight and tumor volume by caliper measurements. Tumor growth inhibition was detected by caliper measurements (left). Data shown are means (±SE) of n=6-8 per treatment group. Statistical comparisons of continuous variables were carried out by Student's two-tailed t-test and were considered significant when P<0.05.
(§2) For determination of systemic toxicity, 3 additional mice from each group were sacrificed on day 5 before any lethality was observed. Organ weights were measured. For complete blood count analysis, 200 μl of blood was drawn from each mouse via cardiac puncture, immediately mixed with 50 μl of Sequester Solution (Cambridge Diagnostic Products), and was analyzed with the HemaVet950 (Drew Scientific). Immunohistochemical staining of excised tumors for caspase-3 was performed as previously described.
To evaluate systemic toxicity, analysis of complete blood cell count, which is highly susceptible to chemotherapeutic agents, was performed. Three mice from each group were dissected on day 5, and complete blood count (white blood cell, red blood cell, and thrombocyte) was performed (FIG. 12e). Data represents means (±SE). *P<0.05, when compared to free Dox group.

NCI-H929 cells [3] = assay: Cytotoxicity on fibronectin or BSA coated plates (CAM-DR)
Protocol: Cytotoxicity assays: Cytotoxicity was determined using Cell Counting Kft-8 (Dojindo) as previously described. […] In all cases, cell viability was assessed by cell counting kit-8 (CCK-8), and data represent means (±SD) of triplicate cultures.
Cell viability was assessed by cell counting kit-8 (CCK-8), and data represent means (±SD) of triplicate cultures.

[4] = tested on: NCI-H929 subcutaneous xenograft; assay: Subcutaneous xenograft model of MM, tumor growth; format: in vivo, CB.17 SCID mice; conditions: 6 mg/kg Dox equivalents iv on days 1, 3 and 5
Protocol: as §1, §2
Three mice from each group were dissected on day 5 and tumors were stained for activated caspase-3. Representative images of tumor cross-sections that were captured using a Nikon Eclipse TS100 microscope at 20× magnification are shown.

NCI-H929 MM cells = assay: Cytotoxicity assay (Cell Counting Kit-8); format: cell-based, human; conditions: Dox equivalents
Protocol: To determine cytotoxicity in the presence of fibronectin, MM cells were plated on fibronectin coated plates (40 μg/ml), in adhesion buffer, for 1 h. […] BSA coated plates were used as controls.

Which H2AX phosphorylation (NCI-H929 cells [1]) does the source give for `COc1cccc2c1C(=O)c1c(O)c3c(c(O)c1C2=O)C[C@@](O)(C(=O)CO)C[C@@H]3O[C@H]1C[C@H](N)[C@H](O)[C@H](C)O1` [free Dox, doxorubicin] here?
Its H2AX phosphorylation is “induced H2AX phosphorylation”.

What about the “apoptosis (annexin V, PARP and caspase-8 activation)” value (NCI-H929 cells [1]) of the same compound?
The value was “induced apoptosis”.

What about the caspase-9 activation (NCI-H929 cells [1]) of the same compound?
Its caspase-9 activation is “No significant caspase-9 activation”.

And the lethality ([2]; 6 mg/kg Dox equivalents iv on days 1, 3 and 5)?
Its lethality is “lethality of all mice on day 7”.

What about the “body weight loss” value ([2]; 6 mg/kg iv on days 1, 3 and 5) of the same compound?
The value was “significant loss of body weight”.

And the “liver mass loss and histopathology” value ([2]; day 5)?
Its value is “moderate hepatocellular hypertrophy and degeneration”.

And the “spleen mass loss and histopathology” value ([2]; day 5)?
The value was “severe fibrosis”.

And the “IC50, cytotoxicity in the presence of fibronectin” value (NCI-H929 cells [3])?
Its value is 0.421-0.09 μM.

What about the “IC50 shift caused by adhesion to fibronectin (CAM-DR)” value (NCI-H929 cells [3]; fibronectin vs BSA coated plates, 72 h) of the same compound?
Its value is 3 fold.

What about the tumor growth inhibition [4] of the same compound?
Its tumor growth inhibition is “dramatic tumor growth inhibition”.

What about the IC50 (NCI-H929 MM cells; NCI-H929, 48 h) of the same compound?
The IC50 was 190 ± 40 nM.

What about the IC50 (NCI-H929 MM cells; NCI-H929, 72 h) of the same compound?
Its IC50 is roughly 130 nM.
